Data on four molecules can be found in ChEMBL document CHEMBL3763154, “Dispirocyclopropyldehydrocostus lactone selectively inhibits acute myelogenous leukemia cells” (Bioorg Med Chem Lett, 2016).

For data set [1], the system named is KG-1a. Put plainly: Antitumor activity against human KG1a cells xenografted in SCID mice assessed as reduction in tumor weight at 50 mg/kg, po administered every other day for 7 times measured after 1 month. In kind it is functional, organism-based.
Data set [2] has as its system KG-1a. Put plainly: Antitumor activity against human KG1a cells xenografted in SCID mice assessed as inhibition of tumor growth at 50 mg/kg, po administered every other day for 7 times. In kind it is functional, organism-based.
The subject of data set [3] is Mus musculus. Put plainly: Toxicity in SCID mouse xenografted with KG1a cells assessed as effect on body weight at 50 mg/kg, po administered every other day for 7 times. The data set is classed as organism-based. Particulars: in vivo.
For data set [4], the system named is K562. Put plainly: Cytotoxicity against human K562 cells after 72 hrs by MTT assay. The data set is classed as functional, cell-based. Particulars: K562, 72 h.
Data set [5] can be described thus: Cytotoxicity against human K562/A02 cells after 72 hrs by MTT assay. In kind it is functional, cell-based. Particulars: K562/A02, 72 h.
Data set [6] is described as follows: Cytotoxicity against human HL60 cells after 72 hrs by MTT assay. In kind it is functional, cell-based. Particulars: HL-60, 72 h.
Data set [7] can be described thus: Cytotoxicity against human KG1a cells after 72 hrs by MTT assay. Particulars: KG-1a. The data set is classed as functional, cell-based.
Data set [8] in a line: Cytotoxicity against human HL60/ADR cells after 72 hrs by MTT assay. In kind it is functional, cell-based.
Data set [9] is described as follows: Induction of apoptosis in human KG1a cells assessed as upregulation of caspase 9 cleavage at 2.5 to 10 uM after 24 hrs by Western blot analysis. In kind it is functional, cell-based. The note with it: KG-1a.
Data set [10] can be described thus: Induction of apoptosis in human KG1a cells assessed as upregulation of Bax expression at 2.5 to 10 uM after 24 hrs by Western blot analysis. The note with it: KG-1a. In kind it is functional, cell-based.
Data set [11] concerns KG-1a. Put plainly: Induction of apoptosis in human KG1a cells assessed as viable cells at 10 uM after 24 hrs by Annexin V-FITC/PI staining based flow cytometry (Rvb=95.1%). The data set is classed as functional. The note with it: read-out: Activity.
Data set [12] relates to KG-1a. Put plainly: Induction of apoptosis in human KG1a cells assessed as late apoptotic cells at 5 uM after 24 hrs by Annexin V-FITC/PI staining based flow cytometry (Rvb=2.30%). In kind it is functional.
In data set [13] the test system is KG-1a. Put plainly: Induction of apoptosis in human KG1a cells assessed as necrotic cells at 5 uM after 24 hrs by Annexin V-FITC/PI staining based flow cytometry (Rvb=0.227%). In kind it is functional.
Data set [14] can be described thus: Cytotoxicity against human AML cells assessed as cell viability at 5 uM after 18 hrs by annexin staining based assay. The data set is classed as functional. Particulars: read-out: Activity.
Data set [15] can be described thus: Aqueous solubility of compound. In kind it is physicochemical. The note with it: buffer.
Data set [16] can be described thus: Induction of apoptosis in human KG1a cells assessed as upregulation of PARP cleavage at 2.5 to 10 uM after 24 hrs by Western blot analysis. In kind it is functional, cell-based. The note with it: KG-1a.
The nature of data set [17]: Cytotoxicity against human CD38 deficient CD34-positive leukemia stem/progenitor AML cells assessed as cell viability at 5 uM after 18 hrs by annexin staining based assay. In kind it is functional. The note with it: read-out: Activity.
Data set [18] is described as follows: Cytotoxicity against human CD38 deficient CD34-positive leukemia stem/progenitor AML cells assessed as cell viability at 10 uM after 18 hrs by annexin staining based assay. The data set is classed as functional. The note with it: read-out: Activity.
Data set [19] concerns KG-1a. Put plainly: Induction of apoptosis in human KG1a cells assessed as late apoptotic cells at 20 uM after 24 hrs by Annexin V-FITC/PI staining based flow cytometry (Rvb=2.30%). In kind it is functional.
The subject of data set [20] is KG-1a. Put plainly: Induction of apoptosis in human KG1a cells assessed as necrotic cells at 50 uM after 24 hrs by Annexin V-FITC/PI staining based flow cytometry (Rvb=0.227%). The data set is classed as functional.
For data set [21], the system named is KG-1a. Put plainly: Induction of apoptosis in human KG1a cells assessed as viable cells at 5 uM after 24 hrs by Annexin V-FITC/PI staining based flow cytometry (Rvb=95.1%). The data set is classed as functional. The note with it: read-out: Activity.
The test system of data set [22] is KG-1a. Put plainly: Induction of apoptosis in human KG1a cells assessed as early apoptotic cells at 10 uM after 24 hrs by Annexin V-FITC/PI staining based flow cytometry (Rvb=2.40%). The data set is classed as functional.
The subject of data set [23] is KG-1a. Put plainly: Induction of apoptosis in human KG1a cells assessed as late apoptotic cells at 10 uM after 24 hrs by Annexin V-FITC/PI staining based flow cytometry (Rvb=2.30%). In kind it is functional.
Data set [24] can be described thus: Cytotoxicity against human CD34-positive leukemia stem/progenitor AML cells assessed as cell viability at 10 uM after 18 hrs by annexin staining based assay. The data set is classed as functional. Particulars: read-out: Activity.
The nature of data set [25]: Cytotoxicity against human AML cells assessed as cell viability at 10 uM after 18 hrs by annexin staining based assay. The data set is classed as functional. Particulars: read-out: Activity.
In data set [26] the test system is KG-1a. Put plainly: Induction of apoptosis in human KG1a cells assessed as viable cells at 50 uM after 24 hrs by Annexin V-FITC/PI staining based flow cytometry (Rvb=95.1%). In kind it is functional. The note with it: read-out: Activity.
The subject of data set [27] is KG-1a. Put plainly: Induction of apoptosis in human KG1a cells assessed as viable cells at 20 uM after 24 hrs by Annexin V-FITC/PI staining based flow cytometry (Rvb=95.1%). The data set is classed as functional. The note with it: read-out: Activity.
In data set [28] the test system is KG-1a. Put plainly: Induction of apoptosis in human KG1a cells assessed as late apoptotic cells at 50 uM after 24 hrs by Annexin V-FITC/PI staining based flow cytometry (Rvb=2.30%). In kind it is functional.
In data set [29] the test system is KG-1a. Put plainly: Induction of apoptosis in human KG1a cells assessed as necrotic cells at 10 uM after 24 hrs by Annexin V-FITC/PI staining based flow cytometry (Rvb=0.227%). The data set is classed as functional.
In data set [30] the test system is KG-1a. Put plainly: Induction of apoptosis in human KG1a cells assessed as early apoptotic cells at 50 uM after 24 hrs by Annexin V-FITC/PI staining based flow cytometry (Rvb=2.40%). In kind it is functional.
In data set [31] the test system is KG-1a. Put plainly: Induction of apoptosis in human KG1a cells assessed as necrotic cells at 20 uM after 24 hrs by Annexin V-FITC/PI staining based flow cytometry (Rvb=0.227%). In kind it is functional.
A short description of data set [32]: Induction of apoptosis in human KG1a cells assessed as upregulation of caspase 3 cleavage at 2.5 to 10 uM after 24 hrs by Western blot analysis. The data set is classed as functional, cell-based. Particulars: KG-1a.
A short description of data set [33]: Cytotoxicity against human hematopoietic stem cells after 24 hrs by MTT assay. In kind it is cell-based.
The subject of data set [34] is KG-1a. Put plainly: Induction of apoptosis in human KG1a cells assessed as early apoptotic cells at 5 uM after 24 hrs by Annexin V-FITC/PI staining based flow cytometry (Rvb=2.40%). The data set is classed as functional.
Data set [35] is described as follows: Cytotoxicity against human CD34-positive leukemia stem/progenitor AML cells assessed as cell viability at 5 uM after 18 hrs by annexin staining based assay. The data set is classed as functional. The note with it: read-out: Activity.
Data set [36] relates to KG-1a. Put plainly: Induction of apoptosis in human KG1a cells assessed as early apoptotic cells at 20 uM after 24 hrs by Annexin V-FITC/PI staining based flow cytometry (Rvb=2.40%). The data set is classed as functional.
Data set [37] has as its system HL-60. Put plainly: Selectivity index, ratio IC50 for human […] cells. In kind it is functional.
The nature of data set [38]: Selectivity index, ratio IC50 for human KG1a cells to IC50 for human HL60 cells. The data set is classed as functional.

Calls of active or inactive are those of the source. No cut-off for these calls is given here.

As for `CN(C)C[C@@H]1C(=O)O[C@H]2[C@H]1CCC1(CC1)[C@@H]1CCC3(CC3)[C@H]21.O=C(O)/C=C/C(=O)O`, in data set [1], the outcome was Active. Moreover, in data set [2], the TGI entry is “Active”. The Activity entry in [3] is reported as “Non-toxic”.
With `C=C1CC[C@H]2C(=C)CC[C@H]3C(=C)C(=O)O[C@@H]3[C@@H]12` [DEHYDROCOSTUSLACTONE], the IC50 in [4] came out at 5.3 µM; in data set [5], 6.6 µM; in [6], 3.7 µM; in data set [7] it was 10.5 µM; in data set [8], 5.1 µM.
For the molecule `C=C1C(=O)O[C@@H]2[C@@H]3[C@@H](CCC34CC4)C3(CC[C@@H]12)CC3`, the outcome in data set [9], in [10], in data set [16] and in data set [32] was Active. Besides, the viability at 10 µM amounted to 66.5% in data set [11], 0.46% in data set [18], 1.9% in [24] and 6.5% in [25]. The Activity in data set [12] was determined as 3.51%; in data set [13], 0.21%; in data set [19], 44.4%; in data set [20], 4.71%; in data set [22], 23.3%; in data set [23], 9.13%. Also, the Activity came out at 49% in data set [28]; 1.05% in data set [29]; 45% in [30]; 3.05% in data set [31]; 6.54% in [34]; 49.9% in [36]. Further, the IC50 in data set [4] is 7 µM; in data set [5], 7.7 µM; in [6], 5.7 µM; in data set [7] it was 7.6 µM; in [8], 6.7 µM; in data set [33], more than 50 µM. In addition, the viability at 5 µM in data set [14] worked out at 50.7%; in [17] it was 24.2%; in data set [21], 82.5%; in data set [35], 42.2%. For the same molecule, the solubility entry in data set [15] is on record as “Insoluble”. Also, the viability at 50 µM in [26] is 1.32%. Further, the viability at 20 µM in data set [27] turned out to be 2%.
For the molecule `COc1cccc2c1C(=O)c1c(O)c3c(c(O)c1C2=O)C[C@@](O)(C(=O)CO)C[C@@H]3O[C@H]1C[C@H](N)[C@H](O)[C@H](C)O1.Cl` [DOXORUBICIN HYDROCHLORIDE], the half-maximal inhibitory concentration (IC50) is 10.6 µM in data set [5], 0.016 µM in data set [6], 0.82 µM in data set [7] and 4.89 µM in data set [8]. Further, the results for the “Ratio IC50” value in data set [37] and in data set [38] were 300 and 50, respectively.
